Laboratory results published in US20140017216A1, “PESTICIDAL MIXTURES” (BAYER CROPSCIENCE LP, priority 2011, published 2014).

Test system: southern armyworm (Spodoptera eridania)
Assay: Test B.7: control of southern armyworm, leaf-dip on lima bean leaves, larval mortality
Format: in vivo
Conditions: single active, neonate larvae, 4 days
Description: For evaluating control of southern armyworm (Spodoptera eridania) the test unit consists of Petri dishes containing eight-day-old Henderson bush lima bean leaves and 10 neonate S. eridania larvae.
The compounds or mixtures are formulated using a solution containing […] water and 0.05 vol % of a surfactant (Kinetic). Leaves are dipped into different concentrations of formulated compounds or mixtures and allowed to dry. Four replications are performed.
For experimental mixtures in these tests identical volumes of both mixing partners at the desired concentrations respectively, are mixed together.
After application, Petri dishes are incubated in the dark at 26±1° C., for 4 days. Larval mortality is visually assessed.
Metaflumizone at rates of 2.5 and 5.0 kg ai/ha and Streptomyces galbus strain M1064 at rates of 0.69. 1.39, and 2.79 kg ai/ha were tested singly and in combination for control of southern armyworm, Spodoptera eridania in the laboratory.

N#Cc1ccc(CC(=NNC(=O)Nc2ccc(OC(F)(F)F)cc2)c2cccc(C(F)(F)F)c2)cc1 (mixture of isomers) [Metaflumizone, metaflumizone]
Observed Mortality (application rate 2.5 kg ai/ha): 15.0% | Observed Mortality (application rate 5.0 kg ai/ha): 47.5%
